Where a SMILES comes first, the peptide text is derived from it.
Tests used:
[1] = target: Muscarinic acetylcholine receptor M3 (Homo sapiens, UniProt P20309)
Histamine H1 receptor = Histamine H1 receptor (Homo sapiens, UniProt P35367)
[2] = target: Sodium-dependent dopamine transporter (Homo sapiens, UniProt Q01959)
[3] = target: T1, Type-1 angiotensin II receptor (Homo sapiens, UniProt P30556)
T1 sequence (P30556 whole entry): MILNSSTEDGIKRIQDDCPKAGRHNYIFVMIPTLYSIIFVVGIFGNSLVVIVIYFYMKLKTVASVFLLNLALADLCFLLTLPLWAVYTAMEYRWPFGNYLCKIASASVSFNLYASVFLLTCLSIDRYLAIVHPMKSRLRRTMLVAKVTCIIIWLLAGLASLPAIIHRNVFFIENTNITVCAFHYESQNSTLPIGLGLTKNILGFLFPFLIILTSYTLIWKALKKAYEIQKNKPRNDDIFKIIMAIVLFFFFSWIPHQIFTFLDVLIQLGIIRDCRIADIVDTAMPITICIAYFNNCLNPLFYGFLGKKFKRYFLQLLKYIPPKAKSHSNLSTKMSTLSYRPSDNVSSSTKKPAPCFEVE

Glucocorticoid receptor = target: T2, Glucocorticoid receptor (Homo sapiens, UniProt P04150)
T2 sequence (P04150 whole entry): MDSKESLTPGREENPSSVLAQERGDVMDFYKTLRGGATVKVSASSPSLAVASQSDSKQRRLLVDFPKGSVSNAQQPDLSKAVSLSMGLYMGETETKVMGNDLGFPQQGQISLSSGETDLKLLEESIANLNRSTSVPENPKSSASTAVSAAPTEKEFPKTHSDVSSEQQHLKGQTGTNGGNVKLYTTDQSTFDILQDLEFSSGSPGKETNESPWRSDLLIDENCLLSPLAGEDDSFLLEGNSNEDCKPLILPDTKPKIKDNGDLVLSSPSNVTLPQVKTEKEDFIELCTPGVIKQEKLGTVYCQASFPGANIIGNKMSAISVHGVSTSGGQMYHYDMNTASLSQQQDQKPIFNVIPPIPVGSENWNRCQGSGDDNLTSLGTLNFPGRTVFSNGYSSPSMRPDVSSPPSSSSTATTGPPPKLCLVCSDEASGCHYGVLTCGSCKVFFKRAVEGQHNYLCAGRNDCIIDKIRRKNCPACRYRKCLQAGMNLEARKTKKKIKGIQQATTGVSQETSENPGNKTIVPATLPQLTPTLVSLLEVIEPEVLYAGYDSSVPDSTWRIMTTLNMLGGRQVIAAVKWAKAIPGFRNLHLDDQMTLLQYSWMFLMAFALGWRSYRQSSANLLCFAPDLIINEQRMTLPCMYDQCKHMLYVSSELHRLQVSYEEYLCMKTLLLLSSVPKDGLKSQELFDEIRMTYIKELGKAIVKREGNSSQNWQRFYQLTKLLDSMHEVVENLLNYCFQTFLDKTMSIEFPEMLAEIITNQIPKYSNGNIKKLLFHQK

[4] = target: 3',5'-cyclic-AMP phosphodiesterase 4D (Homo sapiens, UniProt Q08499); format: functional
3',5'-cyclic-AMP phosphodiesterase 4D, sequence (Q08499 whole entry): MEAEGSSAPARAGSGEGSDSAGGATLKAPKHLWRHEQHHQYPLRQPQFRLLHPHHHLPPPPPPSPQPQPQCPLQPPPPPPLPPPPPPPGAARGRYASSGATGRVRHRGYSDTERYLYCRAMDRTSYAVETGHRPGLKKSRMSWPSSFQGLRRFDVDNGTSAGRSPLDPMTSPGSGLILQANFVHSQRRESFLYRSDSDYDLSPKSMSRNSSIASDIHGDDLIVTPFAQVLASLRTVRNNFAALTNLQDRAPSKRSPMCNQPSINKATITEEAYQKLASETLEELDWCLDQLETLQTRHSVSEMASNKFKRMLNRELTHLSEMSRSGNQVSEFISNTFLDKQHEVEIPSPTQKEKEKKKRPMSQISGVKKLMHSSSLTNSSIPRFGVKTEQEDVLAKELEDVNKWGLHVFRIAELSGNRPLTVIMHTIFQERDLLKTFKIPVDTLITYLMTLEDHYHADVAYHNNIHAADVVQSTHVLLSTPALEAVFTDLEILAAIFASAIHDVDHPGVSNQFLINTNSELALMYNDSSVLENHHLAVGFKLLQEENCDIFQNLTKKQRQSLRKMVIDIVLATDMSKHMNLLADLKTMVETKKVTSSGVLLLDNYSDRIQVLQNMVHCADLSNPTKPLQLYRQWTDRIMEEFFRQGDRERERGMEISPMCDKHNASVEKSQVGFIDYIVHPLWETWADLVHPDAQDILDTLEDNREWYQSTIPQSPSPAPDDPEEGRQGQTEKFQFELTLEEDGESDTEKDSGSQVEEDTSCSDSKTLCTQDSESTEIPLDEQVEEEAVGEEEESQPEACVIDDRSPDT

[5] = target: T3, Amine oxidase [flavin-containing] A (Homo sapiens, UniProt P21397); format: functional
T3 sequence (P21397 whole entry): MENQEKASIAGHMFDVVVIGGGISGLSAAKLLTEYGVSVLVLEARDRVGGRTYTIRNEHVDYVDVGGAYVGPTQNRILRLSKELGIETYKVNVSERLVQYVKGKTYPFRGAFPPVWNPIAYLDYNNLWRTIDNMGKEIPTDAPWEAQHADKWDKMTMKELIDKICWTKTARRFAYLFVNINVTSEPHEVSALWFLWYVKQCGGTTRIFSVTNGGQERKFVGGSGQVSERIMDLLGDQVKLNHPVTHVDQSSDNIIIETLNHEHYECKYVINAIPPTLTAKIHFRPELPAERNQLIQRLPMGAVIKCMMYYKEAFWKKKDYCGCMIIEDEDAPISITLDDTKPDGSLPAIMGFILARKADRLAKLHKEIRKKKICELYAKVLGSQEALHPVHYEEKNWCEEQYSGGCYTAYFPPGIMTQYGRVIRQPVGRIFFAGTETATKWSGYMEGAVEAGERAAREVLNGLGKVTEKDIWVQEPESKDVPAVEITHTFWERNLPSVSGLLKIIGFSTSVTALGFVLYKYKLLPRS

Mu-type opioid receptor [6] = target: T4, Mu-type opioid receptor (Homo sapiens, UniProt P35372); assay: biochemical; format: functional
T4 sequence (P35372 whole entry): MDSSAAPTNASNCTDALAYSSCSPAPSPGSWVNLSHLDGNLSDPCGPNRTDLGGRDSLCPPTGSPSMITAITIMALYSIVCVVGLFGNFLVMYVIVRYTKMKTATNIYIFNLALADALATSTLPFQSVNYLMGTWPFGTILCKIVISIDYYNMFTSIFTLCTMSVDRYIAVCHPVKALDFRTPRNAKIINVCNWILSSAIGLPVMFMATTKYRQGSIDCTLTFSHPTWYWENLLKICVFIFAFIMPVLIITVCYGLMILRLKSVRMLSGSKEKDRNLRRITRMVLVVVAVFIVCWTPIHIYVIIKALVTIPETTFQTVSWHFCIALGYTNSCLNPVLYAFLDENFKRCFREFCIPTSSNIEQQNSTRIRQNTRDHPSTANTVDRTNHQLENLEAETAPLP

[7] = target: T5, 5-hydroxytryptamine receptor 2A (Homo sapiens, UniProt P28223); format: functional, cell-based
T5 sequence (P28223 whole entry): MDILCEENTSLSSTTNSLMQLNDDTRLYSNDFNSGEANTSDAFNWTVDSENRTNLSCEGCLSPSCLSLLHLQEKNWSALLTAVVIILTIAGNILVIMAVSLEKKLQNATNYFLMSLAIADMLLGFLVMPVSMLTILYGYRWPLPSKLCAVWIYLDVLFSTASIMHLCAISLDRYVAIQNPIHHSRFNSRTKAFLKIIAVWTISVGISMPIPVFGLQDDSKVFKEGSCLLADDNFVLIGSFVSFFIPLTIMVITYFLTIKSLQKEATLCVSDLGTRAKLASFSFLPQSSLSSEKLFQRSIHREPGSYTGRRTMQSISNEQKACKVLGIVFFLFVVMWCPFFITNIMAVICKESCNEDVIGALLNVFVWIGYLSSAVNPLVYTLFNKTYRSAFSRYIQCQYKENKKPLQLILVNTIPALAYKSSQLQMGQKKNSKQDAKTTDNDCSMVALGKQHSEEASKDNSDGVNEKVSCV

[8] = target: T5, 5-hydroxytryptamine receptor 2A; format: functional, cell-based; remark: listed apart in the source
B2 bradykinin receptor = target: T6, B2 bradykinin receptor (Homo sapiens, UniProt P30411)
T6 sequence (P30411 whole entry): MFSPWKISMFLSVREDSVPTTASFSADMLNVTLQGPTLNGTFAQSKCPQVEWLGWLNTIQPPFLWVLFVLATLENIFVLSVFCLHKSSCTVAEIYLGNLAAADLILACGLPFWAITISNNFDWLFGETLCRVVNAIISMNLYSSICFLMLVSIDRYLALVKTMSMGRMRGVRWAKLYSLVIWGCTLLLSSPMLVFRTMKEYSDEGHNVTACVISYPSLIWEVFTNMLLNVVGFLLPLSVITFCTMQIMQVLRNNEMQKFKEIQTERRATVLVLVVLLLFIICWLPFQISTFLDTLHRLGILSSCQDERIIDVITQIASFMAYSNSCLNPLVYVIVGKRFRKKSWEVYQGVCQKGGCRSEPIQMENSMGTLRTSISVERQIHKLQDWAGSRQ

Cannabinoid receptor 1 = Cannabinoid receptor 1 (Homo sapiens, UniProt P21554)
Cannabinoid receptor 1, sequence (P21554 whole entry): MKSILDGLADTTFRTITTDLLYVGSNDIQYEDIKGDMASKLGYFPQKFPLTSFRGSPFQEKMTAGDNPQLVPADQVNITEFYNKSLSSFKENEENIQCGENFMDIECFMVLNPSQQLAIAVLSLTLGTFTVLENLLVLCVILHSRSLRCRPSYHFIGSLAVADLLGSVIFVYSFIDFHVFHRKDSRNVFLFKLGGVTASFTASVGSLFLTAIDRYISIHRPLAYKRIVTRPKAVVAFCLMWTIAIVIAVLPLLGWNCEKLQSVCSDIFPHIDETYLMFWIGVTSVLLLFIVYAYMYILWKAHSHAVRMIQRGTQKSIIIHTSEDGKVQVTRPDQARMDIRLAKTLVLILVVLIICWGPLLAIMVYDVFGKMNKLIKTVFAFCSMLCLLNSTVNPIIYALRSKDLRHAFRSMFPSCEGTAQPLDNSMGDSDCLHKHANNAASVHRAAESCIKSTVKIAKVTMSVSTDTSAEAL

Mu-type opioid receptor [9] = target: T4, Mu-type opioid receptor
Further: assay procedure not described here.

Histamine H1 receptor, sequence (P35367 whole entry): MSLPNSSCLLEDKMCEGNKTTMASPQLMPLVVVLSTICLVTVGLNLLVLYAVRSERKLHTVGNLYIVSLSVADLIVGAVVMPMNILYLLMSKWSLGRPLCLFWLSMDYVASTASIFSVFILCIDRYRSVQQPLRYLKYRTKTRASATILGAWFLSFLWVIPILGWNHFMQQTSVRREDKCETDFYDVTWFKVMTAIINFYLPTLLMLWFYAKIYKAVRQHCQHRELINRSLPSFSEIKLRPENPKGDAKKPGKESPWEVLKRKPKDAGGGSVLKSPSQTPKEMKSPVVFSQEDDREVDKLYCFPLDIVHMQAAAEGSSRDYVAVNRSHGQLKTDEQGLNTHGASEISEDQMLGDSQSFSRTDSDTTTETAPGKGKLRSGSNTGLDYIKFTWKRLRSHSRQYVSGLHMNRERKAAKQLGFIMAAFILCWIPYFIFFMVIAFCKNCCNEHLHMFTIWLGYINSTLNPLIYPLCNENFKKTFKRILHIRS
Sodium-dependent dopamine transporter, sequence (Q01959 whole entry): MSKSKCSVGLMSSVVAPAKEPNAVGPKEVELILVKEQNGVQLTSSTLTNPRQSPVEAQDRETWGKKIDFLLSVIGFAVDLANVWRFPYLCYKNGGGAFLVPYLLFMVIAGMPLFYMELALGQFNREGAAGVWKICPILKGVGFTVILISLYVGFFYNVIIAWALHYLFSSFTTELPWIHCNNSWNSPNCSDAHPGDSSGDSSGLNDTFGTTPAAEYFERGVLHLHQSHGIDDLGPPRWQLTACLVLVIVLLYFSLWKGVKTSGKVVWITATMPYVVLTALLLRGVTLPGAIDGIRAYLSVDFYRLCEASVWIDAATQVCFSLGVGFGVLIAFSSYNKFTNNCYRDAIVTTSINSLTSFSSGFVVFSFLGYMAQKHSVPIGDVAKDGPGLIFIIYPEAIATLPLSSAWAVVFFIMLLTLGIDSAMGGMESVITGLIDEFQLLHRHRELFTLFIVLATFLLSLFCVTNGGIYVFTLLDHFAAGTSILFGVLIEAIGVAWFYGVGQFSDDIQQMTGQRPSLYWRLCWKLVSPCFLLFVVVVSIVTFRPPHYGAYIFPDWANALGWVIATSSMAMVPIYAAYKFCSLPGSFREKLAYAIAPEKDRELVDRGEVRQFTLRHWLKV
Muscarinic acetylcholine receptor M3, sequence (P20309 whole entry): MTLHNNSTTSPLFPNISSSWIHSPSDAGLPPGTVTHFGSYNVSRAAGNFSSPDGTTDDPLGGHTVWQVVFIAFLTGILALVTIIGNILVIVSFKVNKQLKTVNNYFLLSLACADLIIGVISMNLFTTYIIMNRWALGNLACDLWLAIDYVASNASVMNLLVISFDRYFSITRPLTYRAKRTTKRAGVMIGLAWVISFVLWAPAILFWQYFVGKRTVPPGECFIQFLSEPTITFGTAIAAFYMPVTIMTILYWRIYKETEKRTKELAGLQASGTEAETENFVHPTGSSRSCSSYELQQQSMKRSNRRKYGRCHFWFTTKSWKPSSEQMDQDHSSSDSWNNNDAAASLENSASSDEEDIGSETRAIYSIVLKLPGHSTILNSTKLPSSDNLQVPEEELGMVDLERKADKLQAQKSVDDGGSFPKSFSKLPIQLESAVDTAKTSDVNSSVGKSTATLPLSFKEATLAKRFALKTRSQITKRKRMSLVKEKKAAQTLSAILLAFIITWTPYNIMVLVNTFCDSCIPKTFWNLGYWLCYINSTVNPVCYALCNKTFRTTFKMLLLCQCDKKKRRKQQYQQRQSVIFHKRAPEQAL

Row | Molecule | AC50 [1] [µM] | AC50 (Histamine H1 receptor) [µM] | AC50 [2] [µM] | AC50 [3] [µM] | AC50 (Glucocorticoid receptor) [µM] | AC50 [4] [µM] | AC50 [5] [µM] | AC50 (Mu-type opioid receptor [6]) [µM] | AC50 [7] [µM] | AC50 [8] [µM] | AC50 (B2 bradykinin receptor) [µM] | AC50 (Cannabinoid receptor 1) [µM] | AC50 (Mu-type opioid receptor [9]) [µM]
1 | C[C@H](N)C(=O)N[C@@H](CCC(N)=O)C(=O)O [ALANYL GLUTAMINE] (H-Ala-Gln-OH) | > 30 | > 30 | > 30 | > 30 | > 30 | > 30 | 15 | > 30 | > 30 | > 30 | > 30 | – | –
2 | CCc1ccc(C(=O)C(C)CN2CCCCC2)cc1 (configuration not stated) [EPERISONE] | – | – | > 30 | > 30 | > 30 | > 30 | > 30 | > 30 | – | – | > 30 | > 30 | –
3 | N=C(N)NC(=O)Cc1c(Cl)cccc1Cl [GUANFACINE] | – | – | > 30 | > 30 | > 30 | > 30 | 6.88 | > 30 | – | – | > 30 | > 10 | > 30
4 | SITOSTEROLS | > 30 | > 30 | > 30 | > 30 | > 30 | > 10 | > 30 | > 30 | > 30 | > 30 | > 30 | – | –
5 | O=C(O)c1ccc2nc(-c3cc(Cl)cc(Cl)c3)oc2c1 | > 30 | > 30 | > 30 | > 30 | > 30 | 10.3 | 18 | > 30 | > 30 | > 30 | > 30 | 22 | –
6 | CCC1(C)CC(=O)NC1=O (configuration not stated) [ETHOSUXIMIDE] | – | – | > 10 | > 10 | > 10 | > 30 | > 10 | > 30 | – | – | > 10 | > 10 | > 30
7 | Nc1nc(Cl)nc2c1ncn2[C@@H]1O[C@H](CO)[C@@H](O)[C@@H]1F [CLOFARABINE] | > 30 | > 30 | > 30 | > 30 | – | 0.17 | > 30 | > 30 | > 30 | > 30 | > 30 | > 30 | > 30
8 | CO/N=C(\C(=O)N[C@@H]1C(=O)N2C(C(=O)O)=C(CSc3nc(C)c(CC(=O)O)s3)CS[C@H]12)c1csc(N)n1 [CEFODIZIME] | > 30 | > 30 | > 30 | > 30 | > 30 | > 30 | > 30 | > 30 | > 30 | > 30 | > 30 | – | –
9 | CO/N=C(\C(=O)N[C@@H]1C(=O)N2C(C(=O)[O-])=C(C[n+]3ccc(N)n3CCO)CS[C@H]12)c1csc(N)n1 [CEFOSELIS] | > 30 | > 30 | > 30 | > 30 | > 30 | > 30 | > 30 | > 30 | > 30 | > 30 | > 30 | – | –
10 | OCCN(CCO)c1nc(N2CCCCC2)c2nc(N(CCO)CCO)nc(N3CCCCC3)c2n1 [DIPYRIDAMOLE] | – | – | > 30 | > 30 | – | 4.5 | > 30 | > 30 | – | – | > 30 | > 30 | –
11 | CN(C)CCOCC(=O)NC12CC3CC(CC(C3)C1)C2 [TROMANTADINE] | > 30 | > 30 | > 30 | > 30 | > 30 | > 30 | > 30 | > 30 | > 30 | > 30 | > 30 | – | –
12 | CCCO[C@H]1[C@@H]([C@@H](COCc2ccc(Cl)cc2)OCc2ccc(Cl)cc2)OC(OCC)[C@@H]1O (some centres not stated) [CLOBENOSIDE] | > 30 | > 30 | > 30 | > 30 | > 30 | > 30 | > 30 | > 30 | > 30 | > 30 | > 30 | – | –
13 | CC1=C(/C=C/C(C)=C/C=C/C(C)=C/C(=O)Oc2c(C)c(C)c3c(c2C)CCC(C)(CCCC(C)CCCC(C)CCCC(C)C)O3)C(C)(C)CCC1 (configuration not stated) [TRETINOIN TOCOFERIL] | > 30 | > 30 | > 30 | > 30 | > 30 | > 30 | > 30 | > 30 | > 30 | > 30 | > 30 | – | –
14 | CCN(CC)Cc1nccn1-c1ccc([N+](=O)[O-])cc1C(=O)c1ccccc1Cl [NIZOFENONE] | > 30 | > 30 | > 30 | > 30 | > 30 | > 30 | > 30 | > 30 | > 30 | > 30 | > 30 | – | –
15 | CCCCOC(=O)C(=O)Nc1cccc(-c2nnn[nH]2)c1 [TAZANOLAST] | > 30 | > 30 | > 30 | > 30 | – | > 30 | > 30 | > 30 | > 30 | > 30 | > 30 | – | –
16 | CC(=O)Oc1cccc2c1C(=O)c1c(OC(C)=O)cc(C(=O)O)cc1C2=O [DIACEREIN] | > 30 | > 30 | > 30 | > 30 | > 30 | 8.8 | > 30 | > 30 | > 30 | 18 | 28 | – | –
17 | Cc1cccc(Nc2ccncc2S(=O)(=O)NC(=O)NC(C)C)c1 [TORSEMIDE] | – | – | > 10 | > 10 | > 10 | > 30 | > 10 | > 30 | – | – | > 30 | > 10 | > 30
18 | OCC(CO)N[C@H]1C[C@](O)(CO)[C@@H](O)[C@H](O)[C@H]1O [VOGLIBOSE] | > 30 | > 30 | > 30 | > 30 | > 30 | > 30 | > 30 | > 30 | > 30 | > 30 | > 30 | > 30 | –

Source: ChEMBL document CHEMBL5291721, “A preclinical secondary pharmacology resource illuminates target-adverse drug reaction associations of marketed drugs” (Nat Commun, 2023)
